Results on eight compounds are retold here after ChEMBL document CHEMBL5291721, “A preclinical secondary pharmacology resource illuminates target-adverse drug reaction associations of marketed drugs” (Nat Commun, 2023).

Molecules are shown by their SMILES. Several values for one entry are separate records, joined by “and”; a condition that tells them apart may be missing. Identical values can stand only once. Bounds are passed on as bounds.

Experiment [1] deals with Cannabinoid receptor 1 (Homo sapiens, UniProt P21554). Type of experiment: functional, cell-based.
Chain of Cannabinoid receptor 1 (P21554 whole entry): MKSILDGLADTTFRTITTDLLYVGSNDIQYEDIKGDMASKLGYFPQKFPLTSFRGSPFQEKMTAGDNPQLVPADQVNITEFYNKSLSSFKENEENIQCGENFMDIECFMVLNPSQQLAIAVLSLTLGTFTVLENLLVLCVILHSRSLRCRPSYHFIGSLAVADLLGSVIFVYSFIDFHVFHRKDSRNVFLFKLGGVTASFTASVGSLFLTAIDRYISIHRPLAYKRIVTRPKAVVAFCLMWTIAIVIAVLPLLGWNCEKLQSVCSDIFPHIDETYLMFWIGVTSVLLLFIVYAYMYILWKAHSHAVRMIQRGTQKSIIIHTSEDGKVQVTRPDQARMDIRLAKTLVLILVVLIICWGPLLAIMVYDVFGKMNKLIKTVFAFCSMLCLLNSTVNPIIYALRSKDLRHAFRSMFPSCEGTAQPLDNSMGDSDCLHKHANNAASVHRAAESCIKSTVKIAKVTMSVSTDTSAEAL
The target of experiment [2] is T1, Alpha-2A adrenergic receptor (Homo sapiens, UniProt P08913).
T1 sequence (P08913 whole entry): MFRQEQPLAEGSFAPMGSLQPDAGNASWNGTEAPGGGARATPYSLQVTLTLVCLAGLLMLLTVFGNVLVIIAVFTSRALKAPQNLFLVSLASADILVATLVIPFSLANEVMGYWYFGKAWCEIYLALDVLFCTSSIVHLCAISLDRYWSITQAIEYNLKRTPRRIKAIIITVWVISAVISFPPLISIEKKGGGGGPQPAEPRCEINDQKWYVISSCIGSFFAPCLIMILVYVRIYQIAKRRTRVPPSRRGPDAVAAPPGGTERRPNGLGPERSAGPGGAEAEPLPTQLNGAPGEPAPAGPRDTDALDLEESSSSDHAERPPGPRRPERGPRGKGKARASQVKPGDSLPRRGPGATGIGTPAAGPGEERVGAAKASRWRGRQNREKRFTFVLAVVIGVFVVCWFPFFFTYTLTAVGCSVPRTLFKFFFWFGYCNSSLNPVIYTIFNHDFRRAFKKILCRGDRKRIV
It is filed as functional, cell-based.

Experiment [3] deals with Sodium-dependent dopamine transporter (Homo sapiens, UniProt Q01959).
Experiment [4] addresses Vasopressin V1a receptor (Homo sapiens, UniProt P37288).
The target in experiment [5] is T2, Neuropeptide Y receptor type 1 (Homo sapiens, UniProt P25929).
T2 sequence (P25929 whole entry): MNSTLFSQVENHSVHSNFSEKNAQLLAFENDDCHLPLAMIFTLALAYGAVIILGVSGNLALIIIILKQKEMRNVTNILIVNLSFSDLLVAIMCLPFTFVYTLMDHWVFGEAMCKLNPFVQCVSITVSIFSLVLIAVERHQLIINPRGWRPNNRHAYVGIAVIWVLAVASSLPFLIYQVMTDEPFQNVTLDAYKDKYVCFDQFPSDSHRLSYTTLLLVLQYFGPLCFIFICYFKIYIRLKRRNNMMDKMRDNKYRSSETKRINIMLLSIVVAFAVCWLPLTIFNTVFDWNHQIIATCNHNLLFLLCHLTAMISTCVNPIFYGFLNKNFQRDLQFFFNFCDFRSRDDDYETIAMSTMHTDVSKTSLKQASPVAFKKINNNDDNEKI

The target in experiment [6] is D(3) dopamine receptor (Homo sapiens, UniProt P35462).
Experiment [7] deals with Melanocortin receptor 3 (Homo sapiens, UniProt P41968).
Chain of Melanocortin receptor 3 (P41968 whole entry): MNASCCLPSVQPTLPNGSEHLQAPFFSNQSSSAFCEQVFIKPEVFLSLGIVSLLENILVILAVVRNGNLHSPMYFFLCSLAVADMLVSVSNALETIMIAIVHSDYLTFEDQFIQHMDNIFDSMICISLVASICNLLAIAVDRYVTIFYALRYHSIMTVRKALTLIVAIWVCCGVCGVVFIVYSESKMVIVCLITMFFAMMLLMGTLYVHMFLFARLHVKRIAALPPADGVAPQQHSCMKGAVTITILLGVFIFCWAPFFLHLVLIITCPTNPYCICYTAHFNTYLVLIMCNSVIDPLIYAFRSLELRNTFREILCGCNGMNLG
In experiment [8] the target is T3, Adenosine receptor A3 (Homo sapiens, UniProt P0DMS8).
T3 sequence (P0DMS8 whole entry): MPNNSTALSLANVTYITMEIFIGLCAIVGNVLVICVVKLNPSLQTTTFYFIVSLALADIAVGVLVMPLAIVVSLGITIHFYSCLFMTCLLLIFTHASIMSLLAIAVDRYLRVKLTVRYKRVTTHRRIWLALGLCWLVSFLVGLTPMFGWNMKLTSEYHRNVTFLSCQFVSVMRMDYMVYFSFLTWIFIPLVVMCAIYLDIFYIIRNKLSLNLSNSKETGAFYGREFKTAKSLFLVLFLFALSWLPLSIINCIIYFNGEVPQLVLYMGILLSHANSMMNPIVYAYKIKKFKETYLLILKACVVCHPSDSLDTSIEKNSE

Experiment [9] has as its target cGMP-inhibited 3',5'-cyclic phosphodiesterase 3A (Homo sapiens, UniProt Q14432). Type of experiment: functional.
For experiment [10], the target named is Muscarinic acetylcholine receptor M3 (Homo sapiens, UniProt P20309).
Experiment [11] deals with Voltage-gated inwardly rectifying potassium channel KCNH2 (Homo sapiens, UniProt Q12809). Type of experiment: functional. Particulars: read-out: AC50.
The target in experiment [12] is 3',5'-cyclic-AMP phosphodiesterase 4D (Homo sapiens, UniProt Q08499). It is filed as functional.
Chain of 3',5'-cyclic-AMP phosphodiesterase 4D (Q08499 whole entry): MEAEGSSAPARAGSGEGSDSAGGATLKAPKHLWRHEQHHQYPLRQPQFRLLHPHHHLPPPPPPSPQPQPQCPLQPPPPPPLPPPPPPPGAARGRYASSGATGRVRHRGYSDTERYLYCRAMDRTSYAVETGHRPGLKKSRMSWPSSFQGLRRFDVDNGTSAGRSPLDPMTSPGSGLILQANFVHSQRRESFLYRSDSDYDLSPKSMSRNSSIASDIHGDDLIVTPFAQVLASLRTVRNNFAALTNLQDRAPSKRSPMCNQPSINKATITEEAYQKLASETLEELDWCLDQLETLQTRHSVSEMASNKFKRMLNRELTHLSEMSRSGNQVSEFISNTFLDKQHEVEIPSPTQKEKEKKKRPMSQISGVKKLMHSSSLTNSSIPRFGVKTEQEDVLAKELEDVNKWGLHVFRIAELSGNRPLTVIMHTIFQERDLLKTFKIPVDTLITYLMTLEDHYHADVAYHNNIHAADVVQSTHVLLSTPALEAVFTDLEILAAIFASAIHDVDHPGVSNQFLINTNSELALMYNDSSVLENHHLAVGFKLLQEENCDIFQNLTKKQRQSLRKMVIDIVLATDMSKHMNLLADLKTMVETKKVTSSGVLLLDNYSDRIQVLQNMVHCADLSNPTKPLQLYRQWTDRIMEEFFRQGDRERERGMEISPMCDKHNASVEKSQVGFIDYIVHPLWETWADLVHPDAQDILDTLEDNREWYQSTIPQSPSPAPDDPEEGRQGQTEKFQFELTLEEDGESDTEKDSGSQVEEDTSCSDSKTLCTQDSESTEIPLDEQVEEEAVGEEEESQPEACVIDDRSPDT
Experiment [13] has as its target Vasopressin V2 receptor (Homo sapiens, UniProt P30518).
Experiment [14] deals with Sodium-dependent serotonin transporter (Homo sapiens, UniProt P31645).
Chain of Sodium-dependent serotonin transporter (P31645 whole entry): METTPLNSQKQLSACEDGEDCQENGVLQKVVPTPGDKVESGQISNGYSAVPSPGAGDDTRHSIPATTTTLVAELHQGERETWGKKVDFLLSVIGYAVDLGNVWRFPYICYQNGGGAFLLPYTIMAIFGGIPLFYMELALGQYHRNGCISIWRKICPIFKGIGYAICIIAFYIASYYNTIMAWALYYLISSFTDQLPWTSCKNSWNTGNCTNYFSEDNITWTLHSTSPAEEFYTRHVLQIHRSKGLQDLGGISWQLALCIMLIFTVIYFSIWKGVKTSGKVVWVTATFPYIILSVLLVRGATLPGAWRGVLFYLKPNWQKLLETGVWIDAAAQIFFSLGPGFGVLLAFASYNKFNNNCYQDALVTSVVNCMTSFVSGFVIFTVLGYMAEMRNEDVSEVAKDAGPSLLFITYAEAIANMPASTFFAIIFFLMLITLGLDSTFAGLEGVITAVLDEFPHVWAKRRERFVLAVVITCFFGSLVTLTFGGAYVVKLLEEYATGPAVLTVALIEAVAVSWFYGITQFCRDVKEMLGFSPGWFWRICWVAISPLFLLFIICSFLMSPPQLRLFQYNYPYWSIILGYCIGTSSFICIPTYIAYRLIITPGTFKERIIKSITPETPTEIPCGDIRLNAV
Experiment [15] has as its target D(1A) dopamine receptor (Homo sapiens, UniProt P21728). Type of experiment: functional, cell-based.
Experiment [16] deals with Motilin receptor (Homo sapiens, UniProt O43193).
Chain of Motilin receptor (O43193 whole entry): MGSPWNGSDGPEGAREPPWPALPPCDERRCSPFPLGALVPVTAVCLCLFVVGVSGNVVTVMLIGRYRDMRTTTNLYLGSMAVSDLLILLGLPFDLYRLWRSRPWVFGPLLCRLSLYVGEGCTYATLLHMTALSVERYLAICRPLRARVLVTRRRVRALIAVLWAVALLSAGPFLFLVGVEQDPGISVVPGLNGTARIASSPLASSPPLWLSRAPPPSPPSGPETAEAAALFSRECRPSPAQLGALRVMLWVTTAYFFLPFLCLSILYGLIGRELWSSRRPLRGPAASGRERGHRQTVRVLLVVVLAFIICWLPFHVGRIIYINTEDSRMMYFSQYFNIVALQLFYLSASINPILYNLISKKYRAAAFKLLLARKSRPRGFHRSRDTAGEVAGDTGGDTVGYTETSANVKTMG
Experiment [17] addresses T4, Alpha-2B adrenergic receptor (Homo sapiens, UniProt P18089).
T4 sequence (P18089 whole entry): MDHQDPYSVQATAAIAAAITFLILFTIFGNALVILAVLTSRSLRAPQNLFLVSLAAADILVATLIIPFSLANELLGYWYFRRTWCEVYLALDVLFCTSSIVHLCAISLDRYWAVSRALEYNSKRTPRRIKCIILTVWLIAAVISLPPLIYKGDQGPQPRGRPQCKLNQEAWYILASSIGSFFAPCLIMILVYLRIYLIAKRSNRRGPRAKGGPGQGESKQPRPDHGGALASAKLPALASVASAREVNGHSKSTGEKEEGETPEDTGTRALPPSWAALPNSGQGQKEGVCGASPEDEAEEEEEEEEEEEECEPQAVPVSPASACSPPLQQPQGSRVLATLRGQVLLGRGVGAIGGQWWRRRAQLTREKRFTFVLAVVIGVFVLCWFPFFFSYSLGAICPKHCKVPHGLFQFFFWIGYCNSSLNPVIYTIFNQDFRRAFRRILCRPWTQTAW

Experiment [18] addresses T5, Alpha-2C adrenergic receptor (Homo sapiens, UniProt P18825).
T5 sequence (P18825 whole entry): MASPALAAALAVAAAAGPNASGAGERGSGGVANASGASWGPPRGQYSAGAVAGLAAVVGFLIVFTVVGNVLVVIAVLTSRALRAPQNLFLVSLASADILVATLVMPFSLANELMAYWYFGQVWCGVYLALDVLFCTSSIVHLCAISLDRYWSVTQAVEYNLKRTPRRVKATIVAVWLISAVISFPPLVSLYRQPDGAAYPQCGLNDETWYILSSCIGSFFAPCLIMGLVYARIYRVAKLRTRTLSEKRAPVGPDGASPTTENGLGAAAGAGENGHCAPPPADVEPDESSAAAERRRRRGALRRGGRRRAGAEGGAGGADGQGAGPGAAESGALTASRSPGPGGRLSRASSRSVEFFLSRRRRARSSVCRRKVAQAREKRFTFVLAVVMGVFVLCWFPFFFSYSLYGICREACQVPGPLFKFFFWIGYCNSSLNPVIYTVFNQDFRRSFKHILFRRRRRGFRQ
It is filed as functional.
Further: assay procedure not described here.

Chain of Vasopressin V1a receptor (P37288 whole entry): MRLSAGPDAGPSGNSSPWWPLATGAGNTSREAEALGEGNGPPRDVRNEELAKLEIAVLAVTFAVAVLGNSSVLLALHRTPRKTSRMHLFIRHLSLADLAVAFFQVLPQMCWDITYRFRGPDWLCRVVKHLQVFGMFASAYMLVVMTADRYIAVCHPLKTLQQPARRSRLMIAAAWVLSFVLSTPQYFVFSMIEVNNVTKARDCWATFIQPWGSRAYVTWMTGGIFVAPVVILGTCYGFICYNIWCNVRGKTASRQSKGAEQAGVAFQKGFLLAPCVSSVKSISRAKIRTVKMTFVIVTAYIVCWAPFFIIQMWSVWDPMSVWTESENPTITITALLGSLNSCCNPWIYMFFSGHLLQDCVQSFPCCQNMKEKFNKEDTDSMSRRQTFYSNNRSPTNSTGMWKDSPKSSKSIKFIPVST
Chain of cGMP-inhibited 3',5'-cyclic phosphodiesterase 3A (Q14432 whole entry): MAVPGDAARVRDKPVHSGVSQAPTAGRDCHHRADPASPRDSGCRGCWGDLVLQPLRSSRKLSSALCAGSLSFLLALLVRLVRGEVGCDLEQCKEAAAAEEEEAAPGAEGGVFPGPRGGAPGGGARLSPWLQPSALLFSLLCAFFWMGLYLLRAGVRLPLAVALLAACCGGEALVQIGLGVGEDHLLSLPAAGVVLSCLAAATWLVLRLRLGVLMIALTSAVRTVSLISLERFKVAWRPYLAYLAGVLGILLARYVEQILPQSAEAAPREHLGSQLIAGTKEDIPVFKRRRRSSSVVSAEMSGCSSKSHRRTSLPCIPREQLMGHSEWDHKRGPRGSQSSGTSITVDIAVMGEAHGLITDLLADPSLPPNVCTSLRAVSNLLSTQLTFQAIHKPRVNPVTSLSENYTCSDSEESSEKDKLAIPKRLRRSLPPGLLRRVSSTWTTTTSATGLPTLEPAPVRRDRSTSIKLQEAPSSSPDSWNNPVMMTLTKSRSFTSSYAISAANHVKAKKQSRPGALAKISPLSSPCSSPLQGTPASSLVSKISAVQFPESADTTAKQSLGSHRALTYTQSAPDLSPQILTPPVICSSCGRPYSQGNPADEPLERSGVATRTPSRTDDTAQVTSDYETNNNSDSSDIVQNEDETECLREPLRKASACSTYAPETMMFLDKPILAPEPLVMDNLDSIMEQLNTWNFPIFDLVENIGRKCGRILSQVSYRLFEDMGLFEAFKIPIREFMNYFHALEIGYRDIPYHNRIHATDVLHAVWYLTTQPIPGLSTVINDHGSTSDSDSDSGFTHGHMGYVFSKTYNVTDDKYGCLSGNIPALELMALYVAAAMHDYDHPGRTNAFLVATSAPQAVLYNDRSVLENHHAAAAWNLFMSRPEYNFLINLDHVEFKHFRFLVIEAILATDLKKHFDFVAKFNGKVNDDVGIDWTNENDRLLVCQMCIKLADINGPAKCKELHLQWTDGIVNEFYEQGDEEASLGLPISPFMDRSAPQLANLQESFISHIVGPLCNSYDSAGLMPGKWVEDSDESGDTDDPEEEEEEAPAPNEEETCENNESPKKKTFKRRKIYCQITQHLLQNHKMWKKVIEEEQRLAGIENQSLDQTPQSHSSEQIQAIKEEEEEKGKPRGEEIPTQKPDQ
Chain of D(1A) dopamine receptor (P21728 whole entry): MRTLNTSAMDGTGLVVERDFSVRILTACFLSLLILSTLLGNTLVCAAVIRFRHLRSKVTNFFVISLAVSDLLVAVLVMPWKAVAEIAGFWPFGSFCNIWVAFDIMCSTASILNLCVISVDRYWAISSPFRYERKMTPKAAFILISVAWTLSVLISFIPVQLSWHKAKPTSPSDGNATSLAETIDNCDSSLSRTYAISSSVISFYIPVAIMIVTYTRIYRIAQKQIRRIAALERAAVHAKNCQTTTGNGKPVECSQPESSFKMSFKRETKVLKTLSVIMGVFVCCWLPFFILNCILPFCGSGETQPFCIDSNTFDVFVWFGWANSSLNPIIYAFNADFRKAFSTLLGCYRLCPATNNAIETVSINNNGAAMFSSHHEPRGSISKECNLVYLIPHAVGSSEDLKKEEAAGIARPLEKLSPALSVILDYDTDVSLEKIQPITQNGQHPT
Chain of Vasopressin V2 receptor (P30518 whole entry): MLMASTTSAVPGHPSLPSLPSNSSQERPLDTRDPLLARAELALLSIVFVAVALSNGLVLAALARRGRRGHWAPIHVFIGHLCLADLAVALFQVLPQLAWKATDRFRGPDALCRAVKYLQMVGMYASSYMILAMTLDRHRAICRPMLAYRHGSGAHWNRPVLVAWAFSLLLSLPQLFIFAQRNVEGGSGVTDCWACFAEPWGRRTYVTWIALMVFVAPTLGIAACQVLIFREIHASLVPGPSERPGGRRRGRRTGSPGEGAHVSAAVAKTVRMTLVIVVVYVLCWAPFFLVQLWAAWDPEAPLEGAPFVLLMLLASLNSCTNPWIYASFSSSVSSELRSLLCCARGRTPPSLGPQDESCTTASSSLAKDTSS

Take `COc1ccccc1N1CCN(CCCNc2cc(=O)n(C)c(=O)n2C)CC1`: the half-maximal activity concentration (AC50) (usually the concentration at which the activity in the assay is half-maximal) in experiment [1] was above 30 µM; in experiment [2], 11 µM; in [3] it was above 30 µM; in experiment [4], above 30 µM; in experiment [5], above 30 µM; in experiment [6], 1.4 µM. Further, the concentration at half-maximal activity (AC50) in experiment [7] was above 30 µM; in experiment [8] it was above 30 µM; in [9], 9.5 µM; in experiment [10], above 30 µM; in [11] it was above 30 µM; in experiment [12], above 10 µM. The AC50 in experiment [13] was above 30 µM; in experiment [14], 9.5 µM; in experiment [15], above 30 µM; in experiment [16], above 30 µM.

As to `O=C(O)CCCCCCCC(=O)O` [AZELAIC ACID], the concentration at half-maximal activity (AC50) in experiment [2], in experiment [3], in [17], in experiment [4], in experiment [18] and in experiment [5] was above 10 µM throughout. For the same compound, the AC50 was above 30 µM in experiment [6]; above 10 µM in experiment [7]; above 10 µM in experiment [8]; above 30 µM in experiment [9]; above 30 µM in experiment [10]; above 30 µM in [11]. For the same compound, the half-maximal activity concentration (AC50) is above 30 µM in experiment [12]; above 10 µM in [13]; above 10 µM in [14]; above 30 µM in experiment [15]; above 10 µM in [16].

Consider `C=CCC1(CC(C)C)C(=O)NC(=O)NC1=O` [BUTALBITAL], for which the AC50 is above 10 µM in [2]; above 10 µM in [3]; above 30 µM in experiment [17]; above 10 µM in [4]; above 30 µM in experiment [18]; above 10 µM in experiment [5]. The AC50 in experiment [6] is above 30 µM; in [7] it was above 10 µM; in [8], above 10 µM; in experiment [9] it was above 30 µM; in experiment [10], above 30 µM; in experiment [11], above 30 µM. Besides, the AC50 in experiment [12] is above 30 µM; in experiment [13], above 10 µM; in experiment [14], above 10 µM; in [15], above 30 µM; in experiment [16] it was above 10 µM.

With `CCc1c(Cl)c(O)c(Cl)c(O)c1C(=O)O[C@H]1[C@H](O)[C@H](OC)[C@H](OC/C2=C\C=C\C[C@H](O)/C(C)=C/[C@H](CC)[C@@H](O[C@@H]3OC(C)(C)[C@@H](OC(=O)C(C)C)[C@H](O)[C@@H]3O)/C(C)=C/C(C)=C/C[C@@H]([C@@H](C)O)OC2=O)O[C@@H]1C` [FIDAXOMICIN], the AC50 is above 30 µM in experiment [3]; above 10 µM in experiment [17]; above 10 µM in [4]; above 30 µM in experiment [18]; above 30 µM in [5]; above 30 µM in experiment [6]. The AC50 was above 30 µM in experiment [7]; 17.1 µM and > 30 µM in experiment [8]; above 30 µM in [9]; above 30 µM in experiment [11]; above 30 µM in experiment [12]; above 30 µM in experiment [13]. Besides, the AC50 in [14] is above 30 µM; in experiment [16], above 10 µM.

As for `CC(C)(C)c1cc(C(C)(C)C)c(NC(=O)c2c[nH]c3ccccc3c2=O)cc1O` [IVACAFTOR], the half-maximal activity concentration (AC50) is above 10 µM in experiment [2]; 11.2 µM in experiment [3]; above 10 µM in experiment [17]; above 30 µM in experiment [4]; above 10 µM in experiment [18]; above 30 µM in [5]. Further, the AC50 was above 30 µM in experiment [6]; above 30 µM in experiment [7]; 2.3 µM in experiment [8]; above 30 µM in experiment [9]; above 30 µM in [10]; above 30 µM in experiment [11]. The concentration at half-maximal activity (AC50) in experiment [12] is above 30 µM; in experiment [13], above 30 µM; in [14], above 30 µM; in [16], above 10 µM.

On to `CC(Oc1c(Cl)cccc1Cl)C1=NCCN1` (centres undefined) [LOFEXIDINE], for which the AC50 in experiment [3] is above 30 µM; in experiment [17], 0.74 µM; in [4], above 30 µM; in [18], 0.42 µM; in [5] it was above 30 µM; in experiment [6], above 30 µM. In addition, the AC50 in experiment [7] was above 30 µM; in [8], above 30 µM; in experiment [9], above 30 µM; in [10], above 30 µM; in [11] it was 8.86 µM; in experiment [12], above 30 µM. The half-maximal activity concentration (AC50) in experiment [13] was above 30 µM; in experiment [14] it was 11 µM; in experiment [15], above 30 µM; in [16] it was above 30 µM.

For the compound `CCN(CC)C(=O)N[C@H]1C[C@@H]2c3cccc4[nH]cc(c34)C[C@H]2N(C)C1` [TERGURIDE], the concentration at half-maximal activity (AC50) in experiment [1] is above 30 µM; in experiment [2], 0.018 µM; in experiment [3], above 30 µM; in [4], above 30 µM; in experiment [18] it was 0.0031 µM; in experiment [5] it was above 30 µM. Further, the concentration at half-maximal activity (AC50) in experiment [6] was 0.006 µM; in experiment [7], above 30 µM; in experiment [8], above 30 µM; in [9], above 30 µM; in [10] it was above 30 µM; in [11] it was 18 µM. Further, the concentration at half-maximal activity (AC50) is above 30 µM in [12]; above 30 µM in experiment [13]; above 30 µM in experiment [14]; 0.049 µM in experiment [15]; above 30 µM in [16].

For the compound `CN1CCN(CC/C=C2/c3ccccc3Sc3ccc(S(=O)(=O)N(C)C)cc32)CC1` [THIOTHIXENE], the AC50 in experiment [1] was above 30 µM; in experiment [2], 5.9 µM; in experiment [3] it was 6.26 µM; in experiment [4], above 10 µM; in experiment [5] it was above 30 µM; in experiment [6], 0.0139 µM. Moreover, the half-maximal activity concentration (AC50) was above 30 µM in [7]; above 30 µM in [8]; 11 µM in [9]; above 10 µM in experiment [10]; 1.63 µM in experiment [11]; 4.1 µM in experiment [12]. Besides, the concentration at half-maximal activity (AC50) in [13] was 20 µM; in experiment [14], above 10 µM; in [15], above 30 µM; in experiment [16] it was above 10 µM.
